Results from ChEMBL document CHEMBL1201862, “PubChem BioAssay data set” (2004).
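Five compound concentrations were applied to cells in 96-well plates for 48 hours; endpoints were derived by simple linear interpolation of the resulting dose-response curve. GI50 marks 50% less growth.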 The source made the active and inactive calls. No stated cut-off is given here; in the data, active = GI50 up to about 1.1 µM and inactive = higher.

How the values were obtained:
Test in all cases: growth of human tumour cells (NCI), 48 h
DU-145 = test system: DU-145
UO-31 = test system: UO-31
RXF 393 = test system: RXF 393
BT-549 = test system: BT-549
OVCAR-3 = test system: OVCAR-3
SK-OV-3 = test system: SK-OV-3
A498 = test system: A498
TK-10 = test system: TK-10
NCI-H460 = test system: NCI-H460
SK-MEL-2 = test system: SK-MEL-2
ACHN = test system: ACHN
SNB-75 = test system: SNB-75
NCI-H23 = test system: NCI-H23
K562 = test system: K562
T47D = test system: T47D
HCT-15 = test system: HCT-15
NCI/ADR-RES = test system: NCI/ADR-RES
SR = test system: SR
NCI-H522 = test system: NCI-H522
M14 = test system: M14
HCT-116 = test system: HCT-116
MDA-MB-435 = test system: MDA-MB-435
RPMI-8226 = test system: RPMI-8226
OVCAR-4 = test system: OVCAR-4
NCI-H226 = test system: NCI-H226
HOP-92 = test system: HOP-92
HCC 2998 = test system: HCC 2998
SF-268 = test system: SF-268
MDA-N = test system: MDA-N
OVCAR-8 = test system: OVCAR-8
SW-620 = test system: SW-620
KM12 = test system: KM12
UACC-257 = test system: UACC-257
HT-29 = test system: HT-29
Malme-3M = test system: Malme-3M
IGROV-1 = test system: IGROV-1
CCRF-CEM = test system: CCRF-CEM
PC-3 = test system: PC-3
SK-MEL-5 = test system: SK-MEL-5
COLO 205 = test system: COLO 205
MCF7 = test system: MCF7
786-0 = test system: 786-0
SK-MEL-28 = test system: SK-MEL-28
HOP-62 = test system: HOP-62
SF-295 = test system: SF-295
MDA-MB-231 = test system: MDA-MB-231
UACC-62 = test system: UACC-62
OVCAR-5 = test system: OVCAR-5
SF-539 = test system: SF-539
A549 = test system: A549
CAKI-1 = test system: CAKI-1
SN12C = test system: SN12C
U-251 = test system: U-251
MOLT-4 = test system: MOLT-4
EKVX = test system: EKVX
SNB-19 = test system: SNB-19
LOX IMVI = test system: LOX IMVI
HL-60 = test system: HL-60
Hs-578T = test system: Hs-578T

With `Cn1cnnc1SC(F)(F)c1nc2ccccc2o1` the GI50 (DU-145) was > 100 µM (inactive), the GI50 (UO-31) was > 100 µM (inactive) and the GI50 (RXF 393) was > 100 µM (inactive). For the same compound, the GI50 (BT-549) was > 100 µM (inactive), the GI50 (OVCAR-3) was > 100 µM (inactive) and the GI50 (SK-OV-3) was > 100 µM (inactive). For the same compound, the GI50 (A498) was > 100 µM (inactive), the GI50 (TK-10) was > 100 µM (inactive) and the GI50 (NCI-H460) was > 100 µM (inactive). The GI50 (SK-MEL-2) was > 100 µM (inactive), the GI50 (ACHN) was > 100 µM (inactive) and the GI50 (SNB-75) was > 100 µM (inactive). The GI50 (NCI-H23) was > 100 µM (inactive), the GI50 (K562) was > 100 µM (inactive) and the GI50 (T47D) was > 100 µM (inactive). The GI50 (HCT-15) was over 100 µM, the GI50 (NCI/ADR-RES) was > 100 µM (inactive) and the GI50 (SR) was > 100 µM (inactive). The GI50 (NCI-H522) was > 100 µM (inactive), the GI50 (M14) was > 100 µM (inactive) and the GI50 (HCT-116) was > 100 µM (inactive). For the same compound, the GI50 (MDA-MB-435) was > 100 µM (inactive), the GI50 (RPMI-8226) was > 100 µM (inactive) and the GI50 (OVCAR-4) was > 100 µM (inactive). For the same compound, the GI50 (NCI-H226) was > 100 µM (inactive), the GI50 (HOP-92) was > 100 µM (inactive) and the GI50 (HCC 2998) was > 100 µM (inactive). For the same compound, the GI50 (SF-268) was > 100 µM (inactive), the GI50 (MDA-N) was > 100 µM (inactive) and the GI50 (OVCAR-8) was > 100 µM (inactive). The GI50 (SW-620) was > 100 µM (inactive), the GI50 (KM12) was > 100 µM (inactive) and the GI50 (UACC-257) was > 100 µM (inactive). For the same compound, the GI50 (HT-29) was > 100 µM (inactive), the GI50 (Malme-3M) was > 100 µM (inactive) and the GI50 (IGROV-1) was > 100 µM (inactive). The GI50 (CCRF-CEM) was > 100 µM (inactive), the GI50 (PC-3) was > 100 µM (inactive) and the GI50 (SK-MEL-5) was > 100 µM (inactive). For the same compound, the GI50 (COLO 205) was > 100 µM (inactive), the GI50 (MCF7) was > 100 µM (inactive) and the GI50 (786-0) was > 100 µM (inactive). The GI50 (SK-MEL-28) was > 100 µM (inactive), the GI50 (HOP-62) was > 100 µM (inactive) and the GI50 (SF-295) was > 100 µM (inactive). The GI50 (MDA-MB-231) was > 100 µM (inactive), the GI50 (UACC-62) was > 100 µM (inactive) and the GI50 (OVCAR-5) was > 100 µM (inactive). For the same compound, the GI50 (SF-539) was > 100 µM (inactive), the GI50 (A549) was > 100 µM (inactive) and the GI50 (CAKI-1) was > 100 µM (inactive). For the same compound, the GI50 (SN12C) was > 100 µM (inactive), the GI50 (U-251) was > 100 µM (inactive) and the GI50 (MOLT-4) was > 100 µM (inactive).

`COc1ccc(/C=C2\CCCCCC2=O)cc1` was tested, and the GI50 (DU-145) was > 100 µM (inactive), the GI50 (UO-31) was > 100 µM (inactive) and the GI50 (RXF 393) was > 100 µM (inactive). For the same compound, the GI50 (BT-549) was > 100 µM (inactive), the GI50 (OVCAR-3) was > 100 µM (inactive) and the GI50 (SK-OV-3) was > 100 µM (inactive). For the same compound, the GI50 (A498) was > 100 µM (inactive), the GI50 (TK-10) was > 100 µM (inactive) and the GI50 (NCI-H460) was > 100 µM (inactive). The GI50 (SK-MEL-2) was > 100 µM (inactive), the GI50 (ACHN) was > 100 µM (inactive) and the GI50 (NCI-H23) was > 100 µM (inactive). For the same compound, the GI50 (K562) was > 100 µM (inactive), the GI50 (T47D) was > 100 µM (inactive) and the GI50 (HCT-15) was over 100 µM. For the same compound, the GI50 (NCI/ADR-RES) was > 100 µM (inactive), the GI50 (SR) was > 100 µM (inactive) and the GI50 (NCI-H522) was > 100 µM (inactive). The GI50 (M14) was > 100 µM (inactive), the GI50 (HCT-116) was > 100 µM (inactive) and the GI50 (MDA-MB-435) was > 100 µM (inactive). The GI50 (RPMI-8226) was > 100 µM (inactive), the GI50 (EKVX) was > 100 µM (inactive) and the GI50 (OVCAR-4) was > 100 µM (inactive). The GI50 (SNB-19) was > 100 µM (inactive), the GI50 (NCI-H226) was > 100 µM (inactive) and the GI50 (HOP-92) was > 100 µM (inactive). For the same compound, the GI50 (HCC 2998) was > 100 µM (inactive), the GI50 (SF-268) was > 100 µM (inactive) and the GI50 (MDA-N) was > 100 µM (inactive). For the same compound, the GI50 (OVCAR-8) was > 100 µM (inactive), the GI50 (SW-620) was > 100 µM (inactive) and the GI50 (KM12) was > 100 µM (inactive). For the same compound, the GI50 (UACC-257) was > 100 µM (inactive), the GI50 (HT-29) was > 100 µM (inactive) and the GI50 (Malme-3M) was > 100 µM (inactive). For the same compound, the GI50 (IGROV-1) was > 100 µM (inactive), the GI50 (CCRF-CEM) was > 100 µM (inactive) and the GI50 (PC-3) was > 100 µM (inactive). For the same compound, the GI50 (SK-MEL-5) was > 100 µM (inactive), the GI50 (COLO 205) was > 100 µM (inactive) and the GI50 (MCF7) was > 100 µM (inactive). The GI50 (786-0) was > 100 µM (inactive), the GI50 (SK-MEL-28) was > 100 µM (inactive) and the GI50 (HOP-62) was > 100 µM (inactive). For the same compound, the GI50 (SF-295) was > 100 µM (inactive), the GI50 (MDA-MB-231) was > 100 µM (inactive) and the GI50 (LOX IMVI) was > 100 µM (inactive). The GI50 (UACC-62) was > 100 µM (inactive), the GI50 (OVCAR-5) was > 100 µM (inactive) and the GI50 (SF-539) was > 100 µM (inactive). For the same compound, the GI50 (A549) was > 100 µM (inactive), the GI50 (CAKI-1) was > 100 µM (inactive) and the GI50 (SN12C) was > 100 µM (inactive). For the same compound, the GI50 (U-251) was > 100 µM (inactive) and the GI50 (MOLT-4) was > 100 µM (inactive).

For `CC(=O)OC(C(=O)O)C(OC(C)=O)C(OC(C)=O)C(OC(C)=O)C(=O)O` (stereo unspecified), the GI50 (HL-60) was > 100 µM (inactive), the GI50 (UO-31) was > 100 µM (inactive) and the GI50 (BT-549) was > 100 µM (inactive). For the same compound, the GI50 (OVCAR-3) was > 100 µM (inactive), the GI50 (SK-OV-3) was > 100 µM (inactive) and the GI50 (A498) was > 100 µM (inactive). For the same compound, the GI50 (TK-10) was > 100 µM (inactive), the GI50 (NCI-H460) was > 100 µM (inactive) and the GI50 (SK-MEL-2) was > 100 µM (inactive). The GI50 (NCI-H23) was > 100 µM (inactive), the GI50 (K562) was > 100 µM (inactive) and the GI50 (HCT-15) was over 100 µM. For the same compound, the GI50 (NCI/ADR-RES) was > 100 µM (inactive), the GI50 (SR) was > 100 µM (inactive) and the GI50 (NCI-H522) was > 100 µM (inactive). For the same compound, the GI50 (M14) was > 100 µM (inactive), the GI50 (HCT-116) was > 100 µM (inactive) and the GI50 (MDA-MB-435) was > 100 µM (inactive). For the same compound, the GI50 (RPMI-8226) was > 100 µM (inactive), the GI50 (EKVX) was > 100 µM (inactive) and the GI50 (SNB-19) was > 100 µM (inactive). For the same compound, the GI50 (NCI-H226) was > 100 µM (inactive), the GI50 (HOP-92) was > 100 µM (inactive) and the GI50 (SF-268) was > 100 µM (inactive). For the same compound, the GI50 (MDA-N) was > 100 µM (inactive), the GI50 (OVCAR-8) was > 100 µM (inactive) and the GI50 (SW-620) was > 100 µM (inactive). For the same compound, the GI50 (KM12) was > 100 µM (inactive), the GI50 (UACC-257) was > 100 µM (inactive) and the GI50 (HT-29) was > 100 µM (inactive). The GI50 (Malme-3M) was > 100 µM (inactive), the GI50 (IGROV-1) was > 100 µM (inactive) and the GI50 (CCRF-CEM) was > 100 µM (inactive). The GI50 (PC-3) was > 100 µM (inactive), the GI50 (SK-MEL-5) was > 100 µM (inactive) and the GI50 (COLO 205) was > 100 µM (inactive). The GI50 (Hs-578T) was > 100 µM (inactive), the GI50 (MCF7) was > 100 µM (inactive) and the GI50 (SK-MEL-28) was > 100 µM (inactive). The GI50 (HOP-62) was > 100 µM (inactive), the GI50 (SF-295) was > 100 µM (inactive) and the GI50 (MDA-MB-231) was > 100 µM (inactive). The GI50 (LOX IMVI) was > 100 µM (inactive), the GI50 (UACC-62) was > 100 µM (inactive) and the GI50 (OVCAR-5) was > 100 µM (inactive). The GI50 (SF-539) was > 100 µM (inactive), the GI50 (A549) was > 100 µM (inactive) and the GI50 (CAKI-1) was > 100 µM (inactive). For the same compound, the GI50 (SN12C) was > 100 µM (inactive), the GI50 (U-251) was > 100 µM (inactive) and the GI50 (MOLT-4) was > 100 µM (inactive).
